Test results taken from patent US5849865A, “Peptides for altering bone resorption, angiogenesis and restenosis” (La Jolla Cancer Research Foundation, priority 1995, dated 1998).
Entries after “also recorded” stand apart in the source; their conditions may differ. Where a SMILES comes first, the peptide text is derived from it. Bridges are numbered along the chain shown (N, C = ends). [ ]: non-standard residue; d: D form. Tic = O=C(O)[C@@H]1Cc2ccccc2CN1; Pen = CC(C)(S)[C@H](N)C(=O)O; Mpa = O=C(O)CCS

Experiments:
α5 β1 (FnR) = molecular target: T1, α5 β1 (FnR) (Homo sapiens, UniProt P05556+P08648); assay: α5 β1 ELISA (competitive); type: binding; conditions: comparison of receptor ELISAs
T1 construct: Fibronectin receptor (FnR) was purified from 100 mM octyl-glucopyranoside-extracted human placenta; from tissue
Method: Peptide binding to purified human α5 β1 (FnR) also as determined using a competitive ELISA. In these assays, […] was immobilized to the wells and the binding of solubilized FnR in the presence of various concentrations of a peptide analogue was determined using a mouse monoclonal antibody to human β1 (clone P4C10; Gibco) and specific binding was visualized using a second antibody.
Microtiter wells were coated at RT by adding 100 μl of 2 μg/ml human Fn in TBS and incubating the plates overnight at 4° C. Following incubation, the plates were washed 3× with TBS/"TWEEN 20". RGD peptides were diluted in TBS containing 20 mM OG and 2 mM MnCl2 and 50 μl was added to wells at 10-fold serial dilutions. FnR was diluted in the same buffer and 50 μl was added to each well.
The plates were incubated for 3 hr at RT and washed with 300 μl TBS/"TWEEN 20". Bound receptor was incubated with 100 μl of the monoclonal anti-β1 antibody for 2 hr, then washed 3× with TBS/"TWEEN 20". […] The amount of bound second antibody was determined as described above.
The IC50 values for various RGD peptides were calculated by determining the concentration of a peptide that inhibited binding of Vn to αv β5 or αv β3 or of Fn to α5 β1 by 50%. The results of these assays are shown in FIG. 2 (columns designated "Receptor Assays").

αv β3 receptor = molecular target: T2, αv β3 receptor (Homo sapiens, UniProt P05106+P06756); type: binding; conditions: comparison of IC50 values of αv β3 ELISA / JY cells with αv β5 and α5 β1 ELISAs
T2 construct: The αv β3 receptor was purified from octyl-glucopyranoside-extracted human placenta; from tissue
Method: Peptide binding to purified αv β3 receptor was determined by using a competitive ELISA, in which αv β3 receptor was immobilized and the binding of solubilized VN, in the presence of various concentrations of peptide analogue, was detected using a monoclonal mouse IgG anti-VN antibody and a labelled anti-mouse IgG conjugate.
96 well microtiter plates were coated overnight at RT with 100 μl/well of αv β3 receptor (0.5 μg/ml in 1×TBS, 4 mM octylglucoside, 1 mM CaCl2). The wells were blocked with 200 μl/well of 1% BSA in 1×TBS, 1 mM CaCl2 for at least 30 min. The plates were washed 2× with 1×TBS, 1 mM CaCl2. 50 μl peptide in 1×TBS, 1 mM CaCl2, 0.05% "TWEEN 20" (polyoxyethylenesorbitan monolaurate) was added in 10-fold serial dilutions. 50 μl of Vn in the same buffer then was added to each well.
The plates were incubated for 3 hr at RT, then washed 3× with 1×TBS, 0.05% "TWEEN 20". 100 μl of 8E6 (Telios) diluted to 1:6000 in 1×TBS, 0.05% "TWEEN 20" was added to the wells and the plates were incubated for 1 hr at RT. Plates were washed 3× with 1×TBS, 0.05% "TWEEN 20". Affinity purified goat anti-mouse IgG conjugated to horseradish peroxidase (100 μl/well; BioRad; Hercules Calif.) was added to each well and incubated for 1 hr at RT. Plates were washed 3× with 1×TBS, 0.05% "TWEEN 20". 100 μl/well of substrate mixture (10 mg O-phenylenediamine in 25 ml 0.1M citrate-phosphate buffer, pH 5.0, 6 μl 30% H2 O2) was added to the plates and allowed to develop. The development process was stopped by adding 50 μl to 4N H2 SO4 to each well. The plates were read at 490 nm and the data analyzed by four parameter fit.

[1] = parathyroid hormone-induced hypercalcemia in mice; type: in vivo, Swiss-Webster mice; conditions: parathyroidectomized mice, 0.2 mg PTH/kg i.v., peptide infused 4 hr
From the text: Parathyroid hormone (PTH) activates osteoclasts, which are involved in bone resorption. Associated with the increased osteoclast activity is an increase in serum calcium. The PTH-induced hypercalcemia assay measures the level of serum calcium, which is an indication of bone resorption in a subject (Fischer et al., Endocrinology 132:1411-1413 (1993), which is incorporated herein by reference).
Swiss-Webster mice, which had been parathyroidectomized two weeks prior to beginning the assay, were obtained from Taconic Lab Animals and Services (Germantown N.Y.). Femoral vein catheters (PE-50 fused with PE10 polyethylene tubing; Becton Dickinson; Parsippany, N.J.) were installed in the mice, flushed and locked with heparinized saline (1:10), sutured to adjacent muscle and internalized within the inguinal space of the incision before closing the incision with wound clips. […]
The experiment was initiated by feeding the mice a calcium-deficient diet overnight, then injecting the mice the following morning with a bolus of 0.2 mg PTH/kg (hPTH 1-34; Bachem; Torrance Calif.), intravenously. […] Various doses of a peptide or vehicle were infused into an animal for 4 hr, then ionized serum calcium again was measured. […] Serum calcium measurements were expressed as the difference between the value 30 min before the PTH pulse and 4 hr after peptide infusion was started. […]

[2] = series of assays of Examples II and III for potency and selectivity
From the text: Peptides of the RGDNTic (SEQ ID NO: 56) pharmacophore group are characterized, in general, as having increased potency, whereas the peptides of the pharmacophore RGDDV (SEQ ID NO: 1) group generally have higher receptor selectivity. […] As used herein, the term "potency" or "potent" means that a peptide of the invention is active at a relatively low concentration in the assays described in Examples II and III. A potent peptide of the invention can be identified, for example, using the assays described in Examples II and III.
The present invention also provides a series of in vitro and in vivo assays useful for screening a panel of peptides in order to identify peptides that can reduce or inhibit bone resorption or that can alter integrin binding such as αv β3 integrin receptor-mediated binding. Such peptides can include, for example, peptides within the pharmacophore groups exemplified herein or peptides within other pharmacophore groups. The series of assays disclosed herein is particularly useful for determining the selectivity and potency of a peptide for reducing or inhibiting bone resorption. The selectivity of a peptide for an integrin receptor involved in osteoclast binding to bone can be determined, for example, using the integrin receptor assays and cell attachment and detachment assays described herein. Use of cell-based assays in conjunction with receptor-based assays is informative because the receptor ELISAs provide useful information regarding the binding characteristics of a particular peptide toward a particular integrin and because the cell-based assays confirm that those characteristics are relevant to the αv β3 receptor or to bone resorption.

[3] = Choi et al. 1994; cited from earlier work
[4] = Fisher et al. 1993; cited from earlier work
osteoclasts = conditions: Sato et al. 1990; EP 437,367; cited from earlier work

Row | Molecule | selectivity toward α5 β1 versus αv β5 (α5 β1 (FnR)) | receptor selectivity for αv β3 as compared to αv β5 and α5 β1 (αv β3 receptor) | further results
1 | C[C@H](NC(=O)[C@@H]1CSSC(C)(C)[C@H](NC(=O)CN)C(=O)N[C@@H](CCCNC(=N)N)C(=O)N[C@@H](C)C(=O)N[C@@H](CCCNC(=N)N)C(=O)NCC(=O)N[C@@H](CC(=O)O)C(=O)N[C@@H](CC(N)=O)C(=O)N2CCC[C@H]2C(=O)N1)C(=O)O [compound 100] (H-G[Pen]RARGDNPCA-OH; disulfide 2-10) | more selective toward α5 β1 than toward αv β5 | – | –
2 | CC(C)[C@@H]1NC(=O)[C@H](CC(=O)O)NC(=O)[C@H](CC(=O)O)NC(=O)CNC(=O)[C@H](CCCNC(=N)N)NC(=O)[C@H](C)NC(=O)[C@H](CCCNC(=N)N)NC(=O)[C@@H](NC(=O)CN)C(C)(C)SSC[C@@H](C(=O)N[C@@H](C)C(=O)O)NC1=O [compound 138] (H-G[Pen]RARGDDVCA-OH; disulfide 2-10) | – | particularly receptor selective | –
3 | C[C@@H]1NC(=O)[C@H](C)NC(=O)[C@@H](NC(=O)CN)C(C)(C)SSC[C@@H](C(N)=O)NC(=O)[C@H]([C@@H](C)O)NC(=O)[C@H](CC(=O)O)NC(=O)[C@H](CC(=O)O)NC(=O)CNC(=O)[C@H](CCCNC(=N)N)NC1=O [compound 186] (H-G[Pen]AARGDDTC-NH2; disulfide 2-10) | – | particularly receptor selective | –
4 | CC(C)[C@@H]1NC(=O)[C@H](CC(=O)O)NC(=O)[C@H](CC(=O)O)NC(=O)CNC(=O)[C@H](CCCNC(=N)N)NC(=O)CCSSC[C@@H](C(N)=O)NC1=O [compound 191] ([Mpa]RGDDVC-NH2; disulfide 1-7) | – | – | PTH-induced rise in serum ionized calcium [1]: decreased the PTH-induced rise in serum ionized calcium in a dose responsive manner
5 | CC(=O)N[C@H]1CSSC(C)(C)[C@@H](C(N)=O)NC(=O)[C@@H]2CCCN2C(=O)[C@H](CC(N)=O)NC(=O)[C@H](CC(=O)O)NC(=O)CNC(=O)[C@H](CCCNC(=N)N)NC1=O [compound 228] (Ac-CRGDNP[Pen]-NH2; disulfide 1-7) | – | particularly receptor selective | –
6 | C[C@H](NC(=O)[C@@H]1CSSC(C)(C)[C@H](NC(=O)CN)C(=O)N[C@@H](C)C(=O)N[C@@H](C)C(=O)N[C@@H](CCCNC(=N)N)C(=O)NCC(=O)N[C@@H](CC(=O)O)C(=O)N[C@@H](CC(N)=O)C(=O)N2CCC[C@H]2C(=O)N1)C(=O)O [compound 310] (H-G[Pen]AARGDNPCA-OH; disulfide 2-10) | more selective toward α5 β1 than toward αv β5 | – | –
7 | C[C@@H]1NC(=O)[C@H](CCCNC(=N)N)NC(=O)CNC(=O)CC[C@@H](C(N)=O)NC(=O)[C@@H]2CCCN2C(=O)[C@H](CC(N)=O)NC(=O)[C@H](CC(=O)O)NC(=O)CNC(=O)[C@H](CCCNC(=N)N)NC1=O [compound 390] (GRARGDNPE-NH2; lactam N-9) | more selective toward α5 β1 than toward αv β5 | – | –
8 | CC(=O)N[C@H]1CSSC[C@@H](C(N)=O)NC(=O)[C@@H]2Cc3ccccc3CN2C(=O)[C@H](CO)NC(=O)[C@H](CC(=O)O)NC(=O)CNC(=O)[C@H](CCCNC(=N)N)NC1=O [compound 812, Ac-CRGDS(Tic)C-NH2] (Ac-CRGDS[Tic]C-NH2; disulfide 1-7) | – | – | activity of minimal-element peptides (FIG. 2) [2]: demonstrate activity; potency (active at a relatively low concentration) ([2]; summary of assays): particularly potent
9 | N=C(N)NCCC[C@@H]1NC(=O)CC[C@@H](C(N)=O)NC(=O)[C@@H]2CCCN2C(=O)[C@H](CO)NC(=O)[C@H](CC(=O)O)NC(=O)CNC1=O [compound 825] (RGDSPE-NH2; lactam N-6) | more selective toward α5 β1 than toward αv β5 | – | –
10 | CC(=O)N[C@@H]1C(=O)N[C@@H](Cc2ccccc2)C(=O)N[C@@H](C)C(=O)N[C@@H](CCCNC(=N)N)C(=O)NCC(=O)N[C@@H](CC(=O)O)C(=O)N[C@@H](CC(N)=O)C(=O)N2CCC[C@H]2C(=O)N[C@H](C(N)=O)CSSC1(C)C [peptide 214] (Ac-[Pen]FARGDNPC-NH2; disulfide 1-9) | – | – | potency (active at a relatively low concentration) ([2]; summary of assays): particularly potent
11 | CC(C)[C@@H]1NC(=O)[C@H](CC(=O)O)NC(=O)[C@H](CC(=O)O)NC(=O)CNC(=O)[C@H](CCCNC(=N)N)NC(=O)CNC(=O)C[C@@H](C(N)=O)NC1=O [peptide 368] (GRGDDVD-NH2; lactam N-7) | – | receptor selective for αv β3; also recorded: selective peptide; also recorded: particularly receptor selective | both potent and selective ([2]; summary of assays): both potent and selective
12 | G(Pen)GRGDSPCA | – | – | neointimal hyperplasia [3]: can inhibit neointimal hyperplasia
13 | echistatin | – | – | bone resorption in vivo [4]: inhibits bone resorption; bone resorption in vitro (osteoclasts): inhibits bone resorption in vitro
